Test results published in ChEMBL document CHEMBL5584290, “Novel flexible biphenyl PfDHFR inhibitors with improved antimalarial activity” (RSC Med Chem, 2024).

Tests used:
Dihydrofolate reductase = target: T1, Dihydrofolate reductase (Homo sapiens, UniProt P00374); assay: Inhibition of human DHFR expressed in Escherichia coli BL21(DE3) pLysS cells assessed as inhibition constant using DHF as substrate measured for 80 sec in presence of NADPH
T1 sequence (P00374 whole entry): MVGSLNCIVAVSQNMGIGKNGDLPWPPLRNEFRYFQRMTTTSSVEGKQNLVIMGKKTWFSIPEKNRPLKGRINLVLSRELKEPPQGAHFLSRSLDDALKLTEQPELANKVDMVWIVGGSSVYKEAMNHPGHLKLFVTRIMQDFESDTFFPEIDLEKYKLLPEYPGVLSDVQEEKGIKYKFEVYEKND

[1] = target: Bifunctional dihydrofolate reductase-thymidylate synthase (Plasmodium falciparum K1, UniProt P13922); assay: Inhibition of wild type Plasmodium falciparum DHFR expressed in Escherichia coli BL21(DE3) pLysS cells assessed as inhibition constant using DHF as substrate measured for 80 sec in presence of NADPH
Bifunctional dihydrofolate reductase-thymidylate synthase, sequence (P13922 whole entry): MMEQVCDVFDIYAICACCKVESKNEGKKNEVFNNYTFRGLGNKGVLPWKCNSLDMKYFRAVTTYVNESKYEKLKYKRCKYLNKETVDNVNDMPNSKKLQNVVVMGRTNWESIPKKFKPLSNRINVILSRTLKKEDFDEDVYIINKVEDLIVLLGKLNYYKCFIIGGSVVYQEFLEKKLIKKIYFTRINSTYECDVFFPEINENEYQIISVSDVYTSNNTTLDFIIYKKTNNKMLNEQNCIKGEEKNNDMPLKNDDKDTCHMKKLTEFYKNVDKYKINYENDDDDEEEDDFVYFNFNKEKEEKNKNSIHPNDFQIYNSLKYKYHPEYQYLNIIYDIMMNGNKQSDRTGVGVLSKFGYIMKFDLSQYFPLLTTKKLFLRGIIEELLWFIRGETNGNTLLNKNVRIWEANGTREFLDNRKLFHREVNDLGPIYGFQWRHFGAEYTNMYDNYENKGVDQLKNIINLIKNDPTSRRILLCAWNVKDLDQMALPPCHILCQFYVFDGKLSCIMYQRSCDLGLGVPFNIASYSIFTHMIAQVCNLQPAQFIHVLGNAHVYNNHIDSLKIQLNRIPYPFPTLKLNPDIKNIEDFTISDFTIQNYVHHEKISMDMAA

[2] = Selectivity index, ratio of IC50 for cytotoxicity against African green monkey Vero cells to IC50 for antimalarial activity against PYR-resistant Plasmodium falciparum V1/S expressing DHFR N51I/C59R/S108N/I164L quadruple mutant
physchem = conditions: octanol/phosphate buffer, pH 7.4
Description: Lipophilicity, log D of the compound in octanol/phosphate buffer at pH 7.4 at 100 uM incubated for 2 hrs by HPLC analysis

Plasmodium falciparum [3] = assay: Antimalarial activity against PYR-resistant Plasmodium falciparum V1/S expressing DHFR N51I/C59R/S108N/I164L quadruple mutant infected in human erythrocytes incubated for 24 hrs by [3H]-hypoxanthine incorporation assay
[4] = Inhibition of wild type Plasmodium falciparum DHFR N51I/C59R/S108N/I164L quadruple mutant expressed in Escherichia coli BL21(DE3) pLysS cells assessed as inhibition constant using DHF as substrate measured for 80 sec in presence of NADPH
Plasmodium falciparum [5] = assay: Antimalarial activity against PYR-sensitive Plasmodium falciparum TM4/8.2 expressing wild type DHFR incubated for 24 hrs by [3H]-hypoxanthine incorporation assay
[6] = Cytotoxicity against African green monkey Vero cells assessed as reduction in cell viability incubated for 72 hrs by sulforhodamine B assay
[7] = Cytotoxicity against African green monkey Vero cells assessed as reduction in cell viability
Plasmodium falciparum [8] = assay: Antimalarial activity against PYR-sensitive Plasmodium falciparum TM4/8.2 expressing wild type DHFR by [3H]-hypoxanthine incorporation assay; conditions: TM4/8.2, 3 h
Plasmodium falciparum [9] = assay: Antimalarial activity against PYR-resistant Plasmodium falciparum V1/S expressing DHFR N51I/C59R/S108N/I164L quadruple mutant by [3H]-hypoxanthine incorporation assay
in vitro [10] = conditions: human, liver microsomes
Description: Intrinsic clearance in human liver microsomes incubated up to 60 mins in presence of NADPH by LC-MS/MS analysis

[11] = Inhibition of Plasmodium falciparum DHFR N51I/C59R/S108N/I164L quadruple mutant
in vitro [12] = conditions: rat, liver microsomes
Description: Intrinsic clearance in rat liver microsomes incubated up to 60 mins in presence of NADPH by LC-MS/MS analysis

Structure (SMILES) | Ki (Dihydrofolate reductase) [µM] | Ki [1] [µM] | selectivity ratio [2] | logD at 2 h, 100 µM (physchem) | IC50 (Plasmodium falciparum [3]) [µM] | Ki [4] [µM] | IC50 (Plasmodium falciparum [5]) [µM] | IC50 at 72 h [6] [µM] | IC50 [7] [µM] | IC50 (Plasmodium falciparum [8]) [µM] | IC50 (Plasmodium falciparum [9]) [µM] | microsomal CLint at 1 h (in vitro [10]) [µL/min/mg] | Ki [11] [µM] | microsomal CLint at 1 h (in vitro [12]) [µL/min/mg]
CCOC(=O)c1ccc(-c2ccc(OCCCCOc3c(N)nc(N)nc3CC)cc2)cc1 | > 250 | 0.00067 | > 2.2 | > 2.5 | 22.8 | 0.00099 | 0.225 | > 50 |  |  |  |  |  | 
CCc1nc(N)nc(N)c1OCCCOc1ccccc1CCC(=O)O |  |  |  |  |  |  |  |  | > 100 | 0.005 | 0.056 | < 3 | 0.00054 | < 3
